Experimental data as given in patent US11597702B2, “Substituted pyrazoles FFA4/GPR120 receptor agonists” (AXXAM S.P.A., priority 2018, dated 2023).

Target: T1, GPR120 (Homo sapiens, UniProt Q5NUL3)
T1 construct: expressed in transfected cells; host or cells: CHO mitoPhotinaGPR120 cells
T1 sequence (Q5NUL3 1-361): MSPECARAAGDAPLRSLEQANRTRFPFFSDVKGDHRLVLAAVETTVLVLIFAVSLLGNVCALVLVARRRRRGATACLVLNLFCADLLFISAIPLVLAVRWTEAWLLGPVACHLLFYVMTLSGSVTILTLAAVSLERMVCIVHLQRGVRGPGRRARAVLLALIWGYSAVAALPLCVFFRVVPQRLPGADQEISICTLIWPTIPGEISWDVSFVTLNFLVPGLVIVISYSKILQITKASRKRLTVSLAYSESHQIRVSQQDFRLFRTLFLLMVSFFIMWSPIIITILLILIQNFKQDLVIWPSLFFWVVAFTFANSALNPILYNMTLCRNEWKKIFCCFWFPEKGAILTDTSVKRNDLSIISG
Experiment: GPR120 agonism in CHO mitoPhotinaGPR120 cell based assay with fluorescent (Fluo-8 calcium, FLIPRTetra) readout, Agonist Mode, dose response
Settings: CHO mitoPhotinaGPR120 cells, Fluo-8 No Wash Ca2+ dye, dose response in quadruplicate, 0.0033% fatty acid free BSA
Procedure: Compounds of the invention were tested for GPR120 agonism in a CHO mitoPhotinaGPR120 cell based assay with fluorescent readout in Agonist Mode in dose response in quadruplicate with intra-plate modality.
Twenty (20) h after seeding, growth medium was manually removed and cells were starved in the presence of 25 μL/w of Standard Tyrode's Buffer. After 3 h, cells were loaded with 20 μL/w of 0.5× Fluo-8 No Wash (AAT Bioquest, Inc.) Ca2+ sensitive dye prepared in Standard Tyrode's Buffer. Cells were incubated for 1 h at room temperature in the dark. Ten (10) μL/w 3× of controls and compounds were diluted in Standard Tyrode's Buffer+0.01% fatty acid free BSA (final concentration=0.0033%) and injected at the FLIPRTetra®, recording the kinetic calcium traces for 3 minutes. Standard Tyrode's buffer composition: 5 mM KCl, 130 mM NaCl, 2 mM CaCl2), 5 mM NaHCO3, 1 mM MgCl2, 20 mM HEPES, pH7.4.

SMILES	EC50 [µM]
Cc1nn(-c2ccccc2)c(C(F)(F)Oc2ccc(CCCO)cc2)c1C#N [Example 95, 5-[difluoro-[4-(3-hydroxypropyl)phenoxy]methyl]-3-methyl-1-phenyl-pyrazole-4-carbonitrile]	0.83
Cc1nn(-c2ccccc2)c(C(F)(F)Oc2c(F)cc(CCCO)cc2F)c1C#N [Example 96, 5-[[2,6-difluoro-4-(3-hydroxypropyl)phenoxy]-difluoro-methyl]-3-methyl-1-phenyl-pyrazole-4-carbonitrile]	0.52
Cc1nn(-c2ccccc2)c(COCc2ccc(C#N)cc2)c1C#N [Example 97, 5-[(4-cyanophenyl)methoxymethyl]-3-methyl-1-phenyl-pyrazole-4-carbonitrile]	2.8
Cc1nn(-c2ccc(F)cc2)c(COCc2ccccc2)c1C#N [Example 98, 5-(benzyloxymethyl)-1-(4-fluorophenyl)-3-methyl-pyrazole-4-carbonitrile]	9.9
Cc1nn(-c2cccc(F)c2)c(COc2ccc(CCO)cc2)c1C#N [Example 101, 1-(3-fluorophenyl)-5-[[4-(2-hydroxyethyl)phenoxy]methyl]-3-methyl-pyrazole-4-carbonitrile]	1.48
Cc1nn(-c2ccccn2)c(COc2ccc(CCO)cc2)c1C#N [Example 102, 5-[[4-(2-hydroxyethyl)phenoxy]methyl]-3-methyl-1-(2-pyridyl)pyrazole-4-carbonitrile]	0.53
Cc1nn(-c2cccnc2)c(COc2ccc(CCO)cc2)c1C#N [Example 103, 5-[[4-(2-hydroxyethyl)phenoxy]methyl]-3-methyl-1-(3-pyridyl)pyrazole-4-carbonitrile]	9.22
Cc1nn(-c2ccncc2)c(COc2ccc(CCO)cc2)c1C#N [Example 104, 5-[[4-(2-hydroxyethyl)phenoxy]methyl]-3-methyl-1-(4-pyridyl)pyrazole-4-carbonitrile]	10.4
Cc1nn(-c2ncccn2)c(COc2ccc(CCO)cc2)c1C#N [Example 105, 5-[[4-(2-hydroxyethyl)phenoxy]methyl]-3-methyl-1-pyrimidin-2-yl-pyrazole-4-carbonitrile]	12.6
Cc1nn(-c2cccnn2)c(COc2ccc(CCO)cc2)c1C#N [Example 106, 5-[[4-(2-hydroxyethyl)phenoxy]methyl]-3-methyl-1-pyridazin-3-yl-pyrazole-4-carbonitrile]	2.49
Cc1nn(-c2ccc(C#N)cc2)c(COc2ccc(CCO)cc2)c1C#N [Example 107, 1-(4-cyanophenyl)-5-[[4-(2-hydroxyethyl)phenoxy]methyl]-3-methyl-pyrazole-4-carbonitrile]	8.15
Cc1nn(-c2ccc(C(F)(F)F)cc2)c(COc2ccc(CCO)cc2)c1C#N [Example 109, 5-[[4-(2-hydroxyethyl)phenoxy]methyl]-3-methyl-1-[4-(trifluoromethyl)phenyl]pyrazole-4-carbonitrile]	3.22
Cc1nn(-c2c(F)cccc2F)c(COc2ccc(CCO)cc2)c1C#N [Example 112, 1-(2,6-difluorophenyl)-5-[[4-(2-hydroxyethyl)phenoxy]methyl]-3-methyl-pyrazole-4-carbonitrile]	10.2
Cc1nn(-c2ccc(F)cc2F)c(COc2ccc(CCO)cc2)c1C#N [Example 114, 1-(2,4-difluorophenyl)-5-[[4-(2-hydroxyethyl)phenoxy]methyl]-3-methyl-pyrazole-4-carbonitrile]	5.55
Cc1nn(-c2ccc(OC(F)(F)F)cc2)c(COc2ccc(CCO)cc2)c1C#N [Example 115, 5-[[4-(2-hydroxyethyl)phenoxy]methyl]-3-methyl-1-[4-(trifluoromethoxy)phenyl]pyrazole-4-carbonitrile]	4.62
Cc1nn(-c2ccc(Cl)nn2)c(COc2ccc(CCO)cc2)c1C#N [Example 116, 1-(6-chloropyridazin-3-yl)-5-[[4-(2-hydroxyethyl)phenoxy]methyl]-3-methyl-pyrazole-4-carbonitrile]	1.63
Cc1nn(C2CCCC2)c(COc2ccc(CCO)cc2)c1C#N [Example 117, 1-cyclopentyl-5-[[4-(2-hydroxyethyl)phenoxy]methyl]-3-methyl-pyrazole-4-carbonitrile]	1.2
Cc1nn(C2CCCCC2)c(COc2ccc(CCO)cc2)c1C#N [Example 118, 1-cyclohexyl-5-[[4-(2-hydroxyethyl)phenoxy]methyl]-3-methyl-pyrazole-4-carbonitrile]	2.24

SMILES	EC50 [µM]
Cc1cc(COc2ccc(CCO)cc2)n(-c2ccccc2)n1 [Example 126, 2-[4-[(5-methyl-2-phenyl-pyrazol-3-yl)methoxy]phenyl]ethanol]	5.92
N#Cc1cnn(-c2ccccc2)c1COc1ccc(CCO)cc1 [Example 129, 5-[[4-(2-hydroxyethyl)phenoxy]methyl]-1-phenyl-pyrazole-4-carbonitrile]	3.33
N#Cc1cnn(-c2ccccc2)c1COc1ccc(CCCO)cc1 [Example 130, 5-[[4-(3-hydroxypropyl)phenoxy]methyl]-1-phenyl-pyrazole-4-carbonitrile]	0.19
Cc1nn(-c2ccccc2)c(COc2c(F)cc(CCC(=O)O)cc2F)c1C#N [Example 133, 3-[4-[(4-cyano-5-methyl-2-phenyl-pyrazol-3-yl)methoxy]-3,5-difluoro-phenyl]propanoic acid]	9.73
Cc1nn(-c2ccccc2)c(COc2ccc(CCC3CCNCC3)cc2)c1C#N [Example 136, 3-methyl-1-phenyl-5-[[4-[2-(4-piperidyl)ethyl]phenoxy]methyl]pyrazole-4-carbonitrile]	17.7
Cc1nn(-c2ccccc2)c(COc2ccc(-c3nc(CO)cs3)cc2)c1C#N [Example 146, 5-[[4-[4-(hydroxymethyl)thiazol-2-yl]phenoxy]methyl]-3-methyl-1-phenyl-pyrazole-4-carbonitrile]	3.36
Cc1nn(-c2ccccc2)c(COc2ccc(CO)cc2C(F)(F)F)c1C#N [Example 147, 5-[[4-(hydroxymethyl)-2-(trifluoromethyl)phenoxy]methyl]-3-methyl-1-phenyl-pyrazole-4-carbonitrile]	1.49
Cc1nn(-c2ccccn2)c(COc2ccc(CCCO)cc2)c1C#N [Example 149, 5-[[4-(3-hydroxypropyl)phenoxy]methyl]-3-methyl-1-(2-pyridyl)pyrazole-4-carbonitrile]	0.15
Cc1ccc(-n2nc(C)c(C#N)c2COc2ccc(CCCO)cc2)cc1 [Example 150, 5-[[4-(3-hydroxypropyl)phenoxy]methyl]-3-methyl-1-(p-tolyl)pyrazole-4-carbonitrile]	0.15
CCc1ccc(-n2nc(C)c(C#N)c2COc2ccc(CCCO)cc2)cc1 [Example 151, 1-(4-ethylphenyl)-5-[[4-(3-hydroxypropyl)phenoxy]methyl]-3-methyl-pyrazole-4-carbonitrile]	0.24
Cc1nn(-c2ccc(Cl)cc2)c(COc2ccc(CCCO)cc2)c1C#N [Example 152, 1-(4-chlorophenyl)-5-[[4-(3-hydroxypropyl)phenoxy]methyl]-3-methyl-pyrazole-4-carbonitrile]	0.51
Cc1nn(C2CCCC2)c(COc2ccc(CCCO)cc2)c1C#N [Example 153, 1-cyclopentyl-5-[[4-(3-hydroxypropyl)phenoxy]methyl]-3-methyl-pyrazole-4-carbonitrile]	0.18
Cc1nn(-c2ccc(F)cn2)c(COc2ccc(CCCO)cc2)c1C#N [Example 154, 1-(5-fluoro-2-pyridyl)-5-[[4-(3-hydroxypropyl)phenoxy]methyl]-3-methyl-pyrazole-4-carbonitrile]	0.21
Cc1nn(-c2ccc(Cl)cn2)c(COc2ccc(CCCO)cc2)c1C#N [Example 155, 1-(5-chloro-2-pyridyl)-5-[[4-(3-hydroxypropyl)phenoxy]methyl]-3-methyl-pyrazole-4-carbonitrile]	0.81
Cc1ccc(-n2nc(C)c(C#N)c2COc2ccc(CCCO)cc2)nc1 [Example 156, 5-[[4-(3-hydroxypropyl)phenoxy]methyl]-3-methyl-1-(5-methyl-2-pyridyl)pyrazole-4-carbonitrile]	0.19
COc1ccc(-n2nc(C)c(C#N)c2COc2ccc(CCCO)cc2)nc1 [Example 157, 5-[[4-(3-hydroxypropyl)phenoxy]methyl]-1-(5-methoxy-2-pyridyl)-3-methyl-pyrazole-4-carbonitrile]	0.28
Cc1nn(-c2ccccn2)c(COc2c(F)cc(CCCO)cc2F)c1C#N [Example 158, 5-[[2,6-difluoro-4-(3-hydroxypropyl)phenoxy]methyl]-3-methyl-1-(2-pyridyl)pyrazole-4-carbonitrile]	0.13
Cc1ccc(-n2nc(C)c(C#N)c2COc2c(F)cc(CCCO)cc2F)cc1 [Example 159, 5-[[2,6-difluoro-4-(3-hydroxypropyl)phenoxy]methyl]-3-methyl-1-(p-tolyl)pyrazole-4-carbonitrile]	0.19
